# In patent publication US12538701B2, “Compound and organic light emitting device comprising the same” (LG Chem, Ltd., priority 2020, dated 2026):
# Assay: Solubility experiment in cyclohexanone
# Assay type: physicochemical
# Details: normal temperature/pressure, whether 0.1 wt % or more was dissolved
# Protocol: In order to confirm the solubility in the solvent used in the solution process of the compounds prepared in the Preparation Examples and the comparative compounds, each of them was dissolved in the solvent cyclohexanone (CHON) under normal temperature/pressure conditions, and it was confirmed whether 0.1 wt % or more was dissolved.
row,SMILES,"Solubility, Solvent CHON"
1,"CC1(C)c2cc(-c3cc4ccccc4o3)ccc2-c2ccc(N(c3ccccc3)c3ccc4c5c6ccc7c(c6ccc5n(-c5ccccc5)c4c3)c3ccc(N(c4ccccc4)c4ccc5c(c4)C(C)(C)c4cc(-c6cc8ccccc8o6)ccc4-5)cc3n7-c3ccccc3)cc21 [Comparative Compound I, reference compound]",X (0.1 wt. % or more insoluble)
2,Cc1cccc(N(c2ccc3c(ccc4c5c(ccc6c7ccc8cc(N(c9cccc(C)c9)c9cccc%10c9oc9ccccc9%10)ccc8c7n(-c7ccccc7)c65)n(-c5ccccc5)c34)c2)c2cccc3c2oc2ccccc23)c1 [Compound 1],◯ (0.1 wt. % or more soluble)
3,Cc1cccc(N(c2ccc3c(ccc4c5cc6c7ccc8cc(N(c9cccc(C)c9)c9cccc%10c9oc9ccccc9%10)ccc8c7n(-c7ccccc7)c6cc5n(-c5ccccc5)c34)c2)c2cccc3c2oc2ccccc23)c1 [Compound 2],◯ (0.1 wt. % or more soluble)
4,Cc1cccc(N(c2ccc3c(ccc4c5cc6c(cc5n(-c5ccccc5)c34)c3ccc4cc(N(c5cccc(C)c5)c5cccc7c5oc5ccccc57)ccc4c3n6-c3ccccc3)c2)c2cccc3c2oc2ccccc23)c1 [Compound 3],◯ (0.1 wt. % or more soluble)
5,Cc1cccc(N(c2ccc3c(ccc4c5c6c7ccc8cc(N(c9cccc(C)c9)c9cccc%10c9oc9ccccc9%10)ccc8c7n(-c7ccccc7)c6ccc5n(-c5ccccc5)c34)c2)c2cccc3c2oc2ccccc23)c1 [Compound 4],◯ (0.1 wt. % or more soluble)
6,Cc1cccc(N(c2ccc3c(ccc4c5ccc6c7ccc8cc(N(c9cccc(C)c9)c9cccc%10c9oc9ccccc9%10)ccc8c7n(-c7ccccc7)c6c5n(-c5ccccc5)c34)c2)c2cccc3c2oc2ccccc23)c1 [Compound 5],◯ (0.1 wt. % or more soluble)
7,c1ccc(-n2c3ccccc3c3cc(-c4ccc(N(c5ccc6ccccc6c5)c5ccc6c(ccc7c8c(ccc9c%10ccc%11cc(N(c%12ccc(-c%13ccc%14c(c%13)c%13ccccc%13n%14-c%13ccccc%13)cc%12)c%12ccc%13ccccc%13c%12)ccc%11c%10n(-c%10ccccc%10)c98)n(-c8ccccc8)c67)c5)cc4)ccc32)cc1 [Compound 6],◯ (0.1 wt. % or more soluble)
8,c1ccc(-n2c3ccccc3c3cc(-c4ccc(N(c5ccc6ccccc6c5)c5ccc6c(ccc7c8cc9c%10ccc%11cc(N(c%12ccc(-c%13ccc%14c(c%13)c%13ccccc%13n%14-c%13ccccc%13)cc%12)c%12ccc%13ccccc%13c%12)ccc%11c%10n(-c%10ccccc%10)c9cc8n(-c8ccccc8)c67)c5)cc4)ccc32)cc1 [Compound 7],◯ (0.1 wt. % or more soluble)
9,c1ccc(-n2c3ccccc3c3cc(-c4ccc(N(c5ccc6ccccc6c5)c5ccc6c(ccc7c8cc9c(cc8n(-c8ccccc8)c67)c6ccc7cc(N(c8ccc(-c%10ccc%11c(c%10)c%10ccccc%10n%11-c%10ccccc%10)cc8)c8ccc%10ccccc%10c8)ccc7c6n9-c6ccccc6)c5)cc4)ccc32)cc1 [Compound 8],◯ (0.1 wt. % or more soluble)
10,c1ccc(-n2c3ccccc3c3cc(-c4ccc(N(c5ccc6ccccc6c5)c5ccc6c(ccc7c8c9c%10ccc%11cc(N(c%12ccc(-c%13ccc%14c(c%13)c%13ccccc%13n%14-c%13ccccc%13)cc%12)c%12ccc%13ccccc%13c%12)ccc%11c%10n(-c%10ccccc%10)c9ccc8n(-c8ccccc8)c67)c5)cc4)ccc32)cc1 [Compound 9],◯ (0.1 wt. % or more soluble)
11,c1ccc(-n2c3ccccc3c3cc(-c4ccc(N(c5ccc6ccccc6c5)c5ccc6c(ccc7c8ccc9c%10ccc%11cc(N(c%12ccc(-c%13ccc%14c(c%13)c%13ccccc%13n%14-c%13ccccc%13)cc%12)c%12ccc%13ccccc%13c%12)ccc%11c%10n(-c%10ccccc%10)c9c8n(-c8ccccc8)c67)c5)cc4)ccc32)cc1 [Compound 10],◯ (0.1 wt. % or more soluble)
12,c1ccc(N(c2ccc3cc(-c4cc5ccccc5o4)ccc3c2)c2ccc3c(ccc4c5c(ccc6c7ccc8cc(N(c9ccccc9)c9ccc%10cc(-c%11cc%12ccccc%12o%11)ccc%10c9)ccc8c7n(-c7ccccc7)c65)n(-c5ccccc5)c34)c2)cc1 [Compound 11],◯ (0.1 wt. % or more soluble)
13,c1ccc(N(c2ccc3cc(-c4cc5ccccc5o4)ccc3c2)c2ccc3c(ccc4c5cc6c7ccc8cc(N(c9ccccc9)c9ccc%10cc(-c%11cc%12ccccc%12o%11)ccc%10c9)ccc8c7n(-c7ccccc7)c6cc5n(-c5ccccc5)c34)c2)cc1 [Compound 12],◯ (0.1 wt. % or more soluble)
14,c1ccc(N(c2ccc3cc(-c4cc5ccccc5o4)ccc3c2)c2ccc3c(ccc4c5cc6c(cc5n(-c5ccccc5)c34)c3ccc4cc(N(c5ccccc5)c5ccc7cc(-c8cc9ccccc9o8)ccc7c5)ccc4c3n6-c3ccccc3)c2)cc1 [Compound 13],◯ (0.1 wt. % or more soluble)
15,c1ccc(N(c2ccc3cc(-c4cc5ccccc5o4)ccc3c2)c2ccc3c(ccc4c5c6c7ccc8cc(N(c9ccccc9)c9ccc%10cc(-c%11cc%12ccccc%12o%11)ccc%10c9)ccc8c7n(-c7ccccc7)c6ccc5n(-c5ccccc5)c34)c2)cc1 [Compound 14],◯ (0.1 wt. % or more soluble)
16,c1ccc(N(c2ccc3cc(-c4cc5ccccc5o4)ccc3c2)c2ccc3c(ccc4c5ccc6c7ccc8cc(N(c9ccccc9)c9ccc%10cc(-c%11cc%12ccccc%12o%11)ccc%10c9)ccc8c7n(-c7ccccc7)c6c5n(-c5ccccc5)c34)c2)cc1 [Compound 15],◯ (0.1 wt. % or more soluble)
17,CC1(C)c2ccccc2-c2ccc(-n3c4cc5c6ccc7cc(N(c8ccccc8)c8ccc9cc(-c%10cc%11ccccc%11o%10)ccc9c8)ccc7c6n(-c6ccc7c(c6)C(C)(C)c6ccccc6-7)c5cc4c4ccc5cc(N(c6ccccc6)c6ccc7cc(-c8cc9ccccc9o8)ccc7c6)ccc5c43)cc21 [Compound 16],◯ (0.1 wt. % or more soluble)
18,[2H]c1c([2H])c([2H])c(-n2c3cc4c5ccc6cc(N(c7ccccc7)c7ccc8cc(-c9cc%10ccccc%10o9)ccc8c7)ccc6c5n(-c5c([2H])c([2H])c([2H])c([2H])c5[2H])c4cc3c3ccc4cc(N(c5ccccc5)c5ccc6cc(-c7cc8ccccc8o7)ccc6c5)ccc4c32)c([2H])c1[2H] [Compound 17],◯ (0.1 wt. % or more soluble)
19,CC(C)(C)c1ccc(N(c2ccc3cc(-c4cc5ccccc5o4)ccc3c2)c2ccc3c(ccc4c5cc6c(cc5n(-c5ccc(C(C)(C)C)cc5)c34)c3ccc4cc(N(c5ccc(C(C)(C)C)cc5)c5ccc7cc(-c8cc9ccccc9o8)ccc7c5)ccc4c3n6-c3ccc(C(C)(C)C)cc3)c2)cc1 [Compound 18],◯ (0.1 wt. % or more soluble)
